Data on nine compounds can be found in ChEMBL document CHEMBL4184087, “Synthesis, optical properties and cytotoxicity of meso-heteroatom substituted IR-786 analogs” (Bioorg Med Chem Lett, 2018).

System in one data set: not listed separately
Description: Photostability of the compound in anhydrous methanol solution under UV irradiation of 15 W after 24 hrs by UV-vis spectroscopic analysis.
Conditions: not given
On to `CN1/C(=C/C=C2\CCCC(/C=C/C3=[N+](C)c4ccccc4C3(C)C)=C2Sc2ccncc2)C(C)(C)c2ccccc21.[I-]`, for which the Stability result was “Stable”. For the compound `CN1/C(=C/C=C2\CCCC(/C=C/C3=[N+](C)c4ccccc4C3(C)C)=C2Oc2ccncc2)C(C)(C)c2ccccc21.[I-]`, the Stability result is given as “Stable”. The same measure, in the same setting: under `CN1/C(=C/C=C2\CCCC(/C=C/C3=[N+](C)c4ccccc4C3(C)C)=C2NCCO)C(C)(C)c2ccccc21.[I-]` stands “Stable”.

In a further data set the test system is PC-3. Description: Antiproliferative activity against human PC3 cells after 48 hrs by MTT assay. In kind it is functional, cell-based. The note with it: PC-3, 48 h.
What is called IC50 is the concentration at which inhibition is half-maximal. Read a low IC50 as greater potency. With `CN1/C(=C/C=C2\CCCC(/C=C/C3=[N+](C)c4ccccc4C3(C)C)=C2Sc2ccncc2)C(C)(C)c2ccccc21.[I-]`, the half-maximal inhibitory concentration (IC50) worked out at 12.5 µM.

Take `COc1cccc2c1C(=O)c1c(O)c3c(c(O)c1C2=O)C[C@@](O)(C(=O)CO)C[C@@H]3O[C@H]1C[C@H](N)[C@H](O)[C@H](C)O1` [DOXORUBICIN]: the midpoint of inhibition, the IC50, lay at 2.6 µM. Consider `CN1/C(=C/C=C2\CCCC(/C=C/C3=[N+](C)c4ccccc4C3(C)C)=C2Oc2ccncc2)C(C)(C)c2ccccc21.[I-]`, for which the IC50 is 5.22 µM. `CN(C)CCSC1=C(/C=C/C2=[N+](C)c3ccccc3C2(C)C)CCC/C1=C\C=C1\N(C)c2ccccc2C1(C)C` came in with an IC50 of 6.04 µM.

Consider `CN(C)CCNC1=C(/C=C/C2=[N+](C)c3ccccc3C2(C)C)CCC/C1=C\C=C1\N(C)c2ccccc2C1(C)C`, for which the IC50 was found to be 13.2 µM. Still for that read-out and setting: under `CN(CCO)C1=C(/C=C/C2=[N+](C)c3ccccc3C2(C)C)CCC/C1=C\C=C1\N(C)c2ccccc2C1(C)C` stands 9.23 µM. In turn, `CN1/C(=C/C=C2\CCCC(/C=C/C3=[N+](C)c4ccccc4C3(C)C)=C2N2CCC(CO)CC2)C(C)(C)c2ccccc21` had an IC50 of 9.33 µM. Regarding `CCN(CCO)C1=C(/C=C/C2=[N+](C)c3ccccc3C2(C)C)CCC/C1=C\C=C1\N(C)c2ccccc2C1(C)C`, the half-maximal inhibitory concentration (IC50) worked out at 9.08 µM. With `CN1/C(=C/C=C2\CCCC(/C=C/C3=[N+](C)c4ccccc4C3(C)C)=C2NCCO)C(C)(C)c2ccccc21.[I-]`, the IC50 was found to be 4.73 µM.

System in another data set: not listed separately
Kind of data set: Stability of the compound in anhydrous methanol solution under dark condition after 24 hrs by UV-vis spectroscopic analysis.
Conditions: not given
`CN1/C(=C/C=C2\CCCC(/C=C/C3=[N+](C)c4ccccc4C3(C)C)=C2Sc2ccncc2)C(C)(C)c2ccccc21.[I-]`: the Stability result is recorded as “Stable”. Still for that read-out and setting: the value for `CN1/C(=C/C=C2\CCCC(/C=C/C3=[N+](C)c4ccccc4C3(C)C)=C2Oc2ccncc2)C(C)(C)c2ccccc21.[I-]` was “Stable”; that for `CN1/C(=C/C=C2\CCCC(/C=C/C3=[N+](C)c4ccccc4C3(C)C)=C2NCCO)C(C)(C)c2ccccc21.[I-]` was “Stable”.
